From PMC9474705 (British journal of pharmacology, 2022)

Tests used:
β2AR (β2AR stable cells) = β2AR (β2AR stable cells) (Homo sapiens, UniProt P07550); assay: [3H]DHA competition on membranes; type: binding
β1AR-RlucII = β1AR-RlucII (Homo sapiens, UniProt P08588); assay: BRET Gs; type: cell-based; details: agonist, […] min, mini-Gs
β2AR-RlucII = β2AR-RlucII (Homo sapiens, UniProt P07550); assay: BRET Gs; type: cell-based; details: agonist, […] min, mini-Gs
β2AR-RlucII, sequence (P07550 whole entry): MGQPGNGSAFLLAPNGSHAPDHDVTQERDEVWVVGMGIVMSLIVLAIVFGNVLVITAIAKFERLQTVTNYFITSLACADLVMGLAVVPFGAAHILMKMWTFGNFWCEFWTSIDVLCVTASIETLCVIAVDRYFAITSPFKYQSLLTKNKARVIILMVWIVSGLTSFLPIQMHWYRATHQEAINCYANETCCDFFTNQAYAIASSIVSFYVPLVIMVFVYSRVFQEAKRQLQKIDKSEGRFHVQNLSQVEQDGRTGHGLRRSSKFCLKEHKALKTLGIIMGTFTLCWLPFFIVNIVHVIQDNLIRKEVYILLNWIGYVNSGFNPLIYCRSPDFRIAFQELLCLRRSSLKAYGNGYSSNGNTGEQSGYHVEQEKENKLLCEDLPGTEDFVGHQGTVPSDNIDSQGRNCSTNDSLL

β2AR (β2AR stable cells), sequence (P07550 whole entry): as above
β1AR-RlucII, sequence (P08588 whole entry): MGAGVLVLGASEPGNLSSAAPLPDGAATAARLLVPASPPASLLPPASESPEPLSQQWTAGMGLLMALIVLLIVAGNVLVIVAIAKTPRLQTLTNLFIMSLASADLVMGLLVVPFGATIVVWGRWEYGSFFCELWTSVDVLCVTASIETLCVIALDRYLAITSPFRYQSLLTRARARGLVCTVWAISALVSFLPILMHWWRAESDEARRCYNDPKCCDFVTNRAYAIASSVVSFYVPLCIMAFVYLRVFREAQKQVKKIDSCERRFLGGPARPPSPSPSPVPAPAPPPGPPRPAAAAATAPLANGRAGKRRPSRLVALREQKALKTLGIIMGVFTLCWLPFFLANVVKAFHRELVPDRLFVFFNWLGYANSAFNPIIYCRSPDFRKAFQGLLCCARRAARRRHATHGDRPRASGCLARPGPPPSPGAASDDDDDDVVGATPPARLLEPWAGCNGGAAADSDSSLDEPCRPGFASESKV

IC50 (β2AR (β2AR stable cells)) | Compound | EC50 (β1AR-RlucII) | EC50 (β2AR-RlucII)
5.01 µM | Oc1ccc(CC2NCCc3cc(O)c(O)cc32)cc1 (stereo not shown) [Higenamine] |  | 
5.01 µM | CC(CCc1ccc(O)cc1)NCCc1ccc(O)c(O)c1 (stereo not shown) [Dobutamine] | DOB was slightly more efficacious for β1AR | 
31.6 µM | CCCCNCC(O)c1ccc(O)cc1 (stereo not shown) [Bamethane] |  | all compounds showed efficacy in recruiting Gαs to the receptor
0.251 µM | CC(CCc1ccccc1)NC(C)C(O)c1ccc(O)cc1 (stereo not shown) [Buphenine] |  | 
1.26 µM | CC(NCCc1ccc(O)cc1)C(O)c1ccc(O)cc1 (stereo not shown) [Ritodrine] |  | 
